# Results: article PMC8370248, “Key Metabolic Enzymes Involved in Remdesivir Activation in Human Lung Cells” (Antimicrobial Agents and Chemotherapy, 2021)
# Read-outs that look alike come from different tables or passages of the source.
# How the values were obtained:
# CatA [1] = target: T1, CatA (Homo sapiens, UniProt P10619); experiment: CatA-catalyzed hydrolysis of fluorogenic peptide substrate, inhibition; assay type: biochemical; design: purchased R&D Systems (Minneapolis, MN)
# T1 sequence (P10619 29-326 limits assumed): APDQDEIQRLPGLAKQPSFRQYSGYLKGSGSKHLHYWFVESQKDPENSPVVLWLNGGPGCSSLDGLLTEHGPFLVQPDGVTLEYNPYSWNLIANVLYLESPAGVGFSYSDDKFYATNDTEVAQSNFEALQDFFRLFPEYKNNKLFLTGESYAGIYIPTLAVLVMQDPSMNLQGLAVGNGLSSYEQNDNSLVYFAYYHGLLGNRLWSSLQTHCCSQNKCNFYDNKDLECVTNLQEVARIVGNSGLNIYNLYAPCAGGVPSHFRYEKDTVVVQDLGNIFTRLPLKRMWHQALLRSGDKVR
# T1 sequence (P10619 327-480 limits assumed): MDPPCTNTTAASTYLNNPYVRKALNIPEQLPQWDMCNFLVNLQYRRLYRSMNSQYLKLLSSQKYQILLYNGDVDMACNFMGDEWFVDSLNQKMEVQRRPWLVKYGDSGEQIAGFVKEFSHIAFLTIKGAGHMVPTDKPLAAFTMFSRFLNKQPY
# Procedure: The reaction was studied under both pH 6.5 (to match CatA-catalyzed RDV reaction conditions with minimal acidic hydrolysis) and pH 5.5 (to mimic acidic lysosomal environment). CatA was initially activated following the manufacturer’s protocol. […] Threefold dilutions of compounds were prepared in 100% DMSO. The final DMSO concentration was kept constant at 1% (vol/vol). […] The slopes of the progress curves were used to measure reaction rates. Reaction rates were plotted as a function of inhibitor concentration, and the data were fit with a four-parameter logistic fit using GraphPad Prism software to yield IC50 values.
# (§1) Data were analyzed using GraphPad Prism 8.0. IC50 values were calculated by nonlinear regression analysis using the following sigmoidal dose-response (variable slope) equation (four-parameter logistic equation). Y=100/[1+10^(logIC50−X)×HillSlope] where X is the log of the concentration of the test compound, and Y is the response. The IC50 values were calculated as an average of three or more independent experiments.
# [2] = system: cellular activation of sofosbuvir (SOF); experiment: Effect of HINT1 inhibitors on cellular activation of sofosbuvir; assay type: cell-based; conditions: data not shown
# HINT1 [3] = target: T2, HINT1 (Homo sapiens, UniProt P49773); experiment: HINT1-catalyzed hydrolysis of RDV MetX, inhibition; assay type: biochemical
# T2 construct: purchased Abcam (Cambridge, MA)
# T2 sequence (P49773 whole entry): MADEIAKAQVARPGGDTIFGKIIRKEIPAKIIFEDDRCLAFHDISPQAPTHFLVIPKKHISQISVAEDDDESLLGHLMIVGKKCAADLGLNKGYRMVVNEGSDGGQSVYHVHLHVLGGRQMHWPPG
# Procedure: Following protein precipitation and centrifugation, 150 μl of supernatants were dried down and reconstituted with 250 μl water. All samples were analyzed by LC-MS, and PAR values were used for quantification. Disappearance of the MetX substrate was monitored over the incubation time period. Three experiments were conducted with two replicates each experiment, and data are reported as averages from three experiments.
# as §1
# HINT1 [4] = target: HINT1; design: method as in PMID 31503445; conditions: previously reported by Shah et al. ref 17; read-out: dissociation constant [Kd], HINT1; cited from earlier work
# NHBE cells = experiment: Effect of hydrolase inhibitors on GS-443902 formation from RDV in NHBE cells; assay type: cell-based, human; conditions: coincubation with 1 μM RDV, 24 h, three donors
# Procedure: Cells were harvested at 24 h after compound addition, and the GS-443902 levels were assessed by an LC-MS method.
# NHBE cells (5 × 10^5) in 2 ml of BEGM media were seeded in each well of a 6-well plate and incubated overnight at 37°C and 5% CO2. […] Twenty-four hours post-compound addition, the cells were washed 3× with 1 ml of cold 1× Tris-HCl (pH 7.0)-buffered saline, and cells were harvested in 500 μl dry ice-cold extraction buffer (0.1% potassium hydroxide and 67 mM ethylenediamine tetra-acetic acid in 70% methanol, containing 0.5 μM chloro-ATP as internal standard) and transferred to a deep-well block on dry ice. The deep-well block was stored at −80°C until processing. At the time of harvest, two untreated wells for each donor were trypsinized, and the cell counts were determined. All compound combinations were tested in duplicate in cells from three donors.
# Each NHBE sample was treated with 500 μl of dry ice-cold extraction buffer (0.1% potassium hydroxide and 67 mM ethylenediamine tetra-acetic acid in 70% methanol, containing 0.5 μM chloro-ATP as internal standard). The above solution was vortexed for 5 min and then centrifuged at 20,000 × g for 10 min. The supernatant was transferred to a clean 96-deep-well plate and then dried on an evaporator. Once dry, samples were reconstituted with 80 μl of 1 mM ammonium phosphate buffer (pH 7) and transferred to a 96-short-well plate for analysis. An aliquot of 10 μl was injected into a Sciex QTrap 6500+ liquid chromatography-tandem mass spectrometry (LC-MS/MS) system run under the multiple reaction monitoring (MRM) operation mode.
# Standard calibration curves for NHBE were constructed based on pmol of compound per sample. […] Using the calibration curve, the amount of the metabolites was quantified in each sample, and the intracellular concentrations (pmol/million cells) were determined by dividing the value by the cell number in the sample.
# CES1c = target: T3, CES1c (Homo sapiens, UniProt P23141); experiment: CES1c-catalyzed hydrolysis of 4-NPA, inhibition by inhibitors; assay type: biochemical
# T3 construct: purchased Corning Incorporated (Corning, NY); host or cells: baculovirus-infected insect cells (microsomal fraction, Supersomes)
# T3 sequence (P23141 18-566 isoform P23141-3 limits assumed): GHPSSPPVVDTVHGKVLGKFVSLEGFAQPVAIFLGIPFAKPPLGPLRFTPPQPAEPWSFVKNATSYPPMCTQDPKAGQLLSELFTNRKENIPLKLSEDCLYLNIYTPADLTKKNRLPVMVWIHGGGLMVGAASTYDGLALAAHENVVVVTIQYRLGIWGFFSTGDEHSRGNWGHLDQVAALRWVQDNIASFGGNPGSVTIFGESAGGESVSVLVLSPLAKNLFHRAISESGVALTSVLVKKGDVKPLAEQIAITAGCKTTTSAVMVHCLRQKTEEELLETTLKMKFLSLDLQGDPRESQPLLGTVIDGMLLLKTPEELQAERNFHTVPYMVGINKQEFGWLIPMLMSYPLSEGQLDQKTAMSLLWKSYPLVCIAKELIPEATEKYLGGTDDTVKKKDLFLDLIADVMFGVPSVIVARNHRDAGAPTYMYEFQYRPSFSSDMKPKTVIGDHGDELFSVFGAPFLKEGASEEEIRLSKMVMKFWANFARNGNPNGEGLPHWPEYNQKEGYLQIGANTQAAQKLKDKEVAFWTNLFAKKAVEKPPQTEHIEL
# Procedure: (§2) Threefold dilutions of compounds were prepared in 100% DMSO. Compounds (100 μM to 0.005 μM), CES isozymes, and substrate 4-NPA were mixed in a 100-μl reaction volume consisting of 100 mM potassium phosphate buffer (pH 7.4) and 1% DMSO. […] The slopes of the progress curves were used to calculate reaction rates. Reaction rates were plotted as a function of inhibitor concentration, and the data were fit with a four-parameter logistic model using GraphPad Prism software (version 8; La Jolla, CA) to yield IC50 values.
# as §1
# CES2 = target: T4, CES2 (Homo sapiens, UniProt O00748); experiment: CES2-catalyzed hydrolysis of 4-NPA, inhibition by inhibitors; assay type: biochemical
# T4 construct: purchased Corning Incorporated (Corning, NY); host or cells: baculovirus-infected insect cells (microsomal fraction, Supersomes)
# T4 sequence (O00748 27-559): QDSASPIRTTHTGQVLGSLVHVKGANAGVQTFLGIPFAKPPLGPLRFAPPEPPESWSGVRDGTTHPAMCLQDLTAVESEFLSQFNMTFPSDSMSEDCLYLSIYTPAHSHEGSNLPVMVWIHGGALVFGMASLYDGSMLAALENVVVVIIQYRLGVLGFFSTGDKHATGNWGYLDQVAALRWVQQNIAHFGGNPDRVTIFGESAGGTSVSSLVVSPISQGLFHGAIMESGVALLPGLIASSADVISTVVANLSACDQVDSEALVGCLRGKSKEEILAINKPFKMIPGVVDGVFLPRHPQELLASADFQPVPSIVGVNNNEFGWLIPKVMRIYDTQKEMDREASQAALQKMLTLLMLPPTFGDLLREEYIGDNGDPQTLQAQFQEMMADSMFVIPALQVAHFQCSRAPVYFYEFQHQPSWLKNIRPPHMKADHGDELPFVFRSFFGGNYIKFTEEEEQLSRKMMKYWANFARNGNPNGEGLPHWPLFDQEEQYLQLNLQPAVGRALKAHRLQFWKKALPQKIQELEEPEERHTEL
# Procedure: as §2, §1
# CES1b = target: T5, CES1b (Homo sapiens, UniProt P23141); experiment: CES1b-catalyzed hydrolysis of 4-NPA, inhibition by inhibitors; assay type: biochemical
# T5 construct: purchased Corning Incorporated (Corning, NY); host or cells: baculovirus-infected insect cells (microsomal fraction, Supersomes)
# T5 sequence (P23141 18-567): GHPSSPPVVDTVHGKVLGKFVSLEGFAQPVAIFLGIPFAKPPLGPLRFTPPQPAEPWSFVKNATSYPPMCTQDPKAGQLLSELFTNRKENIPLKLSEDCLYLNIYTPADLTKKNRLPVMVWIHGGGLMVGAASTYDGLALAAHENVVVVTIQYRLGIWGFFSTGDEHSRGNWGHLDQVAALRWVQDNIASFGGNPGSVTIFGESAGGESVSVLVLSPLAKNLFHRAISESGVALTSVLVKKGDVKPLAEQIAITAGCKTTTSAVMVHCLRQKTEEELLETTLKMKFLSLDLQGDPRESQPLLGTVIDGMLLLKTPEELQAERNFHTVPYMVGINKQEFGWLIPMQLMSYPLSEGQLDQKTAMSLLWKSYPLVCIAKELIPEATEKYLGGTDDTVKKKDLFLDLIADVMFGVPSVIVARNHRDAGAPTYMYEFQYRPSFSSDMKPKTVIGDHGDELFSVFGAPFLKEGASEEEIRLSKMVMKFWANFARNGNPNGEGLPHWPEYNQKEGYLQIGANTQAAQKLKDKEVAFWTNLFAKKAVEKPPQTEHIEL
# Procedure: as §2, §1
# CatA [5] = system: CatA; design: method as in PMID 20801890, PMID 25870059; conditions: published data ref 7, 9; cited from earlier work
# [6] = A549-hACE2 cytotoxicity analysis; conditions: human, A549-hACE2 cells
# Procedure: The cytotoxicity of compounds was determined in A549-hACE2 cells in the following manner. A549-hACE2 cells (12,000 cells per well in medium containing 2% FBS) were plated into a black opaque 96-well plate (Corning). The next day, 3-fold serial dilutions of compounds were prepared in DMSO in a manner to normalize the DMSO concentration among all cell culture wells. The compounds were further diluted 500-fold in the culture medium containing 2% FBS. Spent medium from overnight incubation was aspirated, 100 μl of diluted compound solutions were added to each well, and cultures were returned to 37°C with 5% CO2. […] Luciferase signals were measured using an Envision microplate reader. The relative luciferase signals were calculated by normalizing the luciferase signals of the compound-treated groups to that of the DMSO-treated groups (set as 100%). The relative luciferase signal (y axis) versus the compound concentration (x axis) was plotted in software GraphPad Prism 8 (version 8). […] Three independent experiments were performed with technical duplicates.
# SARS-CoV-2 = experiment: microbe, parasite or virus in culture; assay type: cell-based; conditions: compound alone (plus DMSO), A549-hACE2 cells, 48 h
# CES1 = system: CES1; design: method as in PMID 20801890, PMID 25870059; conditions: published data ref 7, 9; cited from earlier work
# [7] = pH 5.5, fluorogenic peptide substrate, read-out: Inhibition (IC50) of enzyme activities, CatA pH 5.5
# [8] = pH 6.5, fluorogenic peptide substrate, read-out: Inhibition (IC50) of enzyme activities, CatA pH 6.5
# [9] = substrate RDV MetX, read-out: Inhibition (IC50) of enzyme activities, HINT1
# [10] = substrate 4-NPA, read-out: Inhibition (IC50) of enzyme activities, CES1c
# [11] = substrate 4-NPA, read-out: Inhibition (IC50) of enzyme activities, CES1b
compound,measurement,setting,value
Nc1nc2c(ncn2[C@@H]2O[C@H](COC(=O)NCCc3c[nH]c4ccccc34)[C@@H](O)[C@H]2O)c(=O)[nH]1 [TrpGc],IC50,CatA [1]; [7],> 100 µM
same,IC50,CatA [1]; [8],> 100 µM
same,Effect on cellular activation of sofosbuvir (SOF),[2],neither TrpGc nor compound 7
same,IC50,HINT1 [3]; [9],1.5 ± 0.5 µM
same,Kd,HINT1 [4],3.65 µM
same,Effect on GS-443902 formation in NHBE cells,NHBE cells,neither of them significantly altered
same,IC50,CES1c; [10],> 100 µM
same,IC50,"CES2; substrate 4-NPA, read-out: Inhibition (IC50) of enzyme activities, CES2",> 100 µM
same,IC50,CES1b; [11],> 100 µM
CCC[C@H](NC(=O)[C@@H]1[C@H]2CCC[C@H]2CN1C(=O)[C@@H](NC(=O)[C@@H](NC(=O)c1cnccn1)C1CCCCC1)C(C)(C)C)C(=O)C(=O)NC1CC1 [Telaprevir],IC50,"CatA [1]; IC50 values range for CatA, range over pH 6.5 and pH 5.5",0.078 to 0.34 µM
same,IC50,"CatA [1]; Inhibition (IC50) of enzyme activities, CatA pH 5.5, pH 5.5, fluorogenic peptide substrate",0.34 ± 0.06 µM
same,IC50,"CatA [1]; Inhibition (IC50) of enzyme activities, CatA pH 6.5, pH 6.5, fluorogenic peptide substrate",0.078 ± 0.009 µM
same,IC50,HINT1 [3],> 100 µM
same,IC50,CatA [5],0.21 µM
same,CC50 at 48 h,[6],29.2 µM
same,Effect on GS-443902 formation in NHBE cells,NHBE cells,dose-dependent inhibition of GS-443902 formation
same,IC50,CES1c,> 100 µM
same,IC50,CES2,> 100 µM
same,EC50,SARS-CoV-2,> 50 µM
same,IC50,CES1b,> 100 µM
"O=[N+]([O-])c1ccc(OP(=O)(O)Oc2ccc([N+](=O)[O-])cc2)cc1 [BNPP, bis(4-nitrophenyl)phosphate]",IC50,CatA [1]; [7],> 100 µM
same,IC50,CatA [1]; [8],> 100 µM
same,IC50,HINT1 [3]; [9],> 100 µM
same,IC50,CES1,0.11 µM
same,Effect on GS-443902 formation in NHBE cells,NHBE cells,did not cause a significant change in GS-443902 formation
same,IC50,CES1c; [10],14 ± 5.6 µM
same,IC50,CES1b; [11],0.75 ± 0.12 µM
